Values after ≈ are worked out from the molar mass of the structure shown. Like-named read-outs stand apart in the source and are kept apart here.
Tests used:
[1] = Shake-flask drug solubility in absence of excipient (reference solubility); assay type: physicochemical
Protocol: (§1) Compendial media (0.1 N HCl pH 1, phosphate buffer pH 6.8) were prepared according to the method described in European Pharmacopoeia ([35]). Fasted State Simulated Gastric Fluid (FaSSGF) and Fasted State Simulated Intestinal Fluid (FaSSIF-V2) were prepared as described by Jantratid et al.([36]).
(§2) Drug solubility studies in the absence and presence of excipient were performed in triplicate using the shake-flask method ([38]). Drug excess amount and 2% w/w or 5% w/w of each excipient were weighed and placed in centrifuge tubes. […] The physical mixtures were vortexed for 3 min. Then 5 mL of each medium was added in the tubes and the samples were placed in a shaking water bath (37°C, 200 strokes per minute (spm)). […] Filter adsorption studies were prior performed in triplicate for each drug. […] Filtered samples were further diluted (if needed) with the corresponding medium and analysed by HPLC (Supplementary Table I). Analytical HPLC procedures for drug quantification in the samples were modifications of already published methods. Drug quantification was made based on calibration curves. Standards were formulated from concentrated stock solution consisting of drug dissolved in MeOH. […] Drug solubility was calculated based on the sample drug concentration measured.

[2] = ref (20), (22), (23), (25), DrugBank, (28), (31), (33); cited from earlier work
[3] = design: method as in earlier work; details: ref (20), (22), (24), (25), (27), (30), (31), (34); cited from earlier work
[4] = Relative effect (RE) of superdisintegrant on drug apparent solubility (shake-flask, physical mixtures); assay type: physicochemical
Protocol: as §1, §2

[5] = aqueous buffer, thermodynamic from solid, Phosphate buffer pH 6.8 (compendial), 37°C, mean ± SD, read-out: Reference solubility
[6] = fassgf or other biorelevant, thermodynamic from solid, FaSSGF (biorelevant), 37°C, mean ± SD, read-out: Reference solubility
[7] = simulated gastric fluid, thermodynamic from solid, 0.1 N HCl pH 1 (compendial), 37°C, mean ± SD, read-out: Reference solubility
[8] = thermodynamic from solid, FaSSIF-V2 (biorelevant), 37°C, mean ± SD, read-out: Reference solubility

| solubility at 24 h [1, 5] [µg/mL] | solubility at 24 h [1, 6] [µg/mL] | solubility at 24 h [1, 7] [µg/mL] | solubility at 24 h [1, 8] [µg/mL] | Relative effect (RE) of excipient on drug solubility ([4]; 5% CCS(H), FaSSIF-V2, 24 h) [%] | Relative effect (RE) of excipient on drug solubility ([4]; CCS(H), low level, FaSSIF-V2, 24 h) [%] | Relative effect (RE) of excipient on drug solubility ([4]; Explotab CLV (SSG), high excipient level, FaSSIF-V2, 24 h) [%] | Relative effect (RE) of excipient on drug solubility ([4]; Glycolys (SSG), both excipient levels, FaSSIF-V2, 24 h) | Relative effect (RE) of excipient on drug solubility ([4]; Glycolys (SSG), high excipient level, 0.1 N HCl pH 1, 24 h) [%] | Relative effect (RE) of excipient on drug solubility ([4]; Glycolys (SSG), low excipient level, 0.1 N HCl pH 1, 24 h) [%] | Relative effect (RE) of excipient on drug solubility ([4]; Glycolys LV (SSG), high excipient level, FaSSIF-V2, 24 h) [%] | solubility at 0.5 h ([1]; compendial media (0.1 N HCl pH 1; phosphate buffer pH 6.8), 37 °C, thermodynamic from solid, compendial media, 0.5 h, read-out: Solubility of pure drug) [µg/mL] | solubility at 24 h ([1]; compendial media (0.1 N HCl pH 1; phosphate buffer pH 6.8), compendial media, read-out: Solubility of pure drug) [µg/mL] | Relative effect (RE) of excipient on drug solubility ([4]; CCS(L), high level, phosphate buffer pH 6.8, 24 h) [%] | SMILES | Ionization (type) [2] | Solubility (based on BCS classification) [3] |
| --- | --- | --- | --- | --- | --- | --- | --- | --- | --- | --- | --- | --- | --- | --- | --- | --- |
| 5 (≈ 9.91 µM) | 8600 (≈ 17000 µM) | 13000 (≈ 25800 µM) | 13 (≈ 25.8 µM) | – | – | – | – | – | – | – | – | – | – | OCCN(CCO)c1nc(N2CCCCC2)c2nc(N(CCO)CCO)nc(N3CCCCC3)c2n1 [DPL, Dipyridamole] | Weak base | Low (30) |
| 5500 (≈ 26700 µM) | 44 (≈ 213 µM) | 43 (≈ 208 µM) | 1500 (≈ 7270 µM) | – | – | – | – | – | – | – | – | – | – | CC(C)Cc1ccc(C(C)C(=O)O)cc1 (centres unmarked) [IBU, Ibuprofen] | Weak acid | – |
| < 0.015 | 1.2 (≈ 1.7 µM) | 11 (≈ 15.6 µM) | 0.05 (≈ 0.0709 µM) | 31 | −40 | 25 | approximately 50% | −25 | −23 | 42 | – | – | – | CCC(C)n1ncn(-c2ccc(N3CCN(c4ccc(OCC5COC(Cn6cncn6)(c6ccc(Cl)cc6Cl)O5)cc4)CC3)cc2)c1=O (centres unmarked) [ITZ, Itraconazole] | Weak base | Low (34) |
| 15000 (≈ 99200 µM) | 17000 (≈ 112000 µM) | 16000 (≈ 106000 µM) | 17000 (≈ 112000 µM) | – | – | – | – | – | – | – | – | – | – | CC(=O)Nc1ccc(O)cc1 [PRC, Paracetamol] | Neutral | – |
| 227 (≈ 961 µM) | 368 (≈ 1560 µM) | 265 (≈ 1120 µM) | 280 (≈ 1190 µM) | – | – | – | – | – | – | – | 350 (≈ 1480 µM) | 250 (≈ 1060 µM) | 37 | NC(=O)N1c2ccccc2C=Cc2ccccc21 [CBZ, Carbamazepine] | Neutral | Low (27) |

Source: PMC7012964, “Biopharmaceutical Understanding of Excipient Variability on Drug Apparent Solubility Based on Drug Physicochemical Properties. Case Study: Superdisintegrants” (The AAPS Journal, 2020)
